Counter-ions that a name gives are not always drawn. Like-named read-outs stand apart in the source and are kept apart here. Where only a bound is given, the exact number is not on record here.

For orientation: IC50 means the concentration that inhibits the measured activity by half.

In one assay the target is human AT2R fused to Cb23 (Homo sapiens, UniProt P50052). The experiment in a line: Radioligand binding assay, displacement of 125I-[Sar1, Ile8]-Angiotensin II, hAT2R Cb23. The procedure: (§1) All synthesized ligands were evaluated in a radioligand assay by displacing ^125I-[Sar1, Ile8]-Angiotensin II (Perkin Elmer, NEX248050UC) from human AT2R fused to Cb23 or human/rodent/cynomolgus/minipig/dog WT AT2R in HEK-293 cells membrane preparations, using C21 (Vicore Pharma) and Angiotensin II (endogenous ligand) as reference. The affinity was determined using an eight-point dose-response curve, each point performed in duplicates. The compounds were also evaluated in a counterscreen binding assay for displacement of ^125I-[Sar1, Ile8]-Angiotensin II binding to human AT1R in HEK-293 cell membranes. For AT1R, the percent displacement was determined at 1 μM and […] (in duplicates) or using an eight-point dose-response curve, each point performed in duplicates with Candesartan and Losartan used as reference.
Sequence of human AT2R fused to Cb23 (P50052 whole entry, looked up, the tested form may be a part): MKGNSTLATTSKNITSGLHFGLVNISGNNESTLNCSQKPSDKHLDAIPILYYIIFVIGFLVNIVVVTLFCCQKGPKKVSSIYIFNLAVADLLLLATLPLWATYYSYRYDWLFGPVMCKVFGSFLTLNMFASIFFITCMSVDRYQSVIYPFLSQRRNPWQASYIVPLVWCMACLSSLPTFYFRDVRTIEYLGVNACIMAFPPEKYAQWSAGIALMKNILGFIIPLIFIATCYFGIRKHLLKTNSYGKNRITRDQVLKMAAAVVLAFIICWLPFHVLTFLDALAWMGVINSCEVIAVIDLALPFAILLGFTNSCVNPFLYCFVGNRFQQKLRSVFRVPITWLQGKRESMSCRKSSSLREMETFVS
(§2) For the AT2R/AT1R binding assays, cell membranes, expressing AT2R_Cb23, AT2R or AT1R, were incubated with 0.05 nM ^125I-[Sarl, Ile8]-Ang II. The ligand competition assay was performed in a total volume of 100 μL assay buffer (50 mM Tris, 5 mM MgCl2, 1 mM EDTA, 0.1% BSA, pH 7.4), at concentrations ranging from […] to 10 μM. For each experiment, each ligand concentration was tested in duplicate. Non-specific binding (NSB) was determined by the inclusion of 10 μM unlabeled [Sarl]-Ang II (Sigma Aldrich). The reaction was initiated by the addition of radioligand, after which the plates were incubated at 25° C. for one hour. The reaction was terminated by rapid filtration using a vacuum harvester, applying six washes with 100 μL of ice-cold wash buffer (50 mM Tris.HCl, pH 7.4). The filter plates GF/C (Perkin Elmer) were pre-soaked in 0.5% PEI. The residual amount of radioactivity was determined via liquid scintillation counting. IC50 values, representing the concentration at which each ligand displaced 50% of ^125I-[Sarl, Ile8]-Ang II, were calculated using GraphPad Prism 7.02 by applying a Non-linear regression equation (variable slope, four parameters) on the data. The obtained values serve as affinity estimates for each ligand and their ability to compete against the radioligand for binding with AT2R or AT1R, respectively.
(In general: Loss of bound radioactivity is the signal in a displacement assay; it reports binding, not function.)

The target in the next assay is human AT1R (Homo sapiens (Human), UniProt P30556). The experiment in a line: Counterscreen radioligand binding assay, displacement of 125I-[Sar1, Ile8]-Angiotensin II, hAT1R WT. Conditions: 125I-[Sar1, Ile8]-Ang II, semi-quantitative score. The procedure:
as §1, §2
(In general: Counterscreens check selectivity or assay interference.)

Where [1] appears, read: displacement of 125I-[Sar1, Ile8]-Angiotensin II, human AT2R fused to Cb23, HEK-293 cell membrane preparations, read-out: Binding affinity on hAT2R_Cb23 IC50.

Sequence of human AT1R (P30556 whole entry): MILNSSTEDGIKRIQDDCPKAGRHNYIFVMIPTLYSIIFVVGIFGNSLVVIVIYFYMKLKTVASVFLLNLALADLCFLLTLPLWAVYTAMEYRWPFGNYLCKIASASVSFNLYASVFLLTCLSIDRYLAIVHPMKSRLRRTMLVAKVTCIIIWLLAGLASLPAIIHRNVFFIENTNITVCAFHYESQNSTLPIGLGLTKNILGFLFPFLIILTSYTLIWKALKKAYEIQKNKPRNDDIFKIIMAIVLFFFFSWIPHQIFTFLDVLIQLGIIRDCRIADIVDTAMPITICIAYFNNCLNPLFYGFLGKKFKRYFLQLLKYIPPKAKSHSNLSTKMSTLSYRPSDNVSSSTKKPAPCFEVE

Turning to `O=[N+]([O-])c1ccc2nc(N3CCN(Cc4ccccc4-c4nn[nH]n4)CC3)sc2c1` [Compound A-07, 6-nitro-2-[4-[[2-(2H-tetrazol-5-yl)-phenyl]methyl]-piperazin-1-yl]-1,3-benzothiazole], the IC50 at human AT2R fused to Cb23 (setting [1]) turned out to be 28.8 µM.

With `CC(=O)Nc1cc(-c2nn[nH]n2)c(N2CCN(Cc3nc4ccccc4s3)CC2)cc1C1CC1` [Compound A-131, N-[4-[4-(1,3-benzo-thiazol-2-ylmethyl)-piperazin-1-yl]-2-cyclopropyl-5-(2H-tetrazol-5-yl)phen-yl]acetamide], the IC50 on human AT2R fused to Cb23 (setting [1]) was found to be 13.3 µM.

For the compound `CCS(=O)(=O)NC(=O)c1ccccc1N1CCN(Cc2nc3ccccc3s2)CC1` [Compound A-04, 2-[4-(1,3-benzothiazol-2-ylmethyl)piperazin-1-yl]-N-ethylsulfonyl-benzamide], at human AT2R fused to Cb23 (setting [1]), the half-inhibitory concentration (IC50) turned out to be 22.8 µM.

In the case of `COCCOc1ccc(-c2nn[nH]n2)c(N2CCN(Cc3nc4ccccc4s3)CC2)c1` [Compound A-56, 2-[[4-[5-(2-meth-oxyethoxy)-2-(2H-tetrazol-5-yl)phen-yl]piperazin-1-yl]-methyl]-1,3-benzo-thiazole], the IC50 at human AT2R fused to Cb23 (setting [1]) was determined as 61.7 µM.

Take `c1ccc2sc(CN3CCN(c4cc(NC5CC5)ccc4-c4nn[nH]n4)CC3)nc2c1` [Compound A-61, 3-[4-(1,3-benzothi-azol-2-ylmethyl)-piperazin-1-yl]-N-cyclopropyl-4-(2H-tetrazol-5-yl)aniline hydrochloride]: the IC50 at human AT2R fused to Cb23 worked out at 14.7 µM.

`O=c1[nH]c(CN2CCN(c3cc(C(F)(F)F)ccc3-c3nn[nH]n3)CC2)nc2ccccc12` [Compound A-29, 2-[[4-[2-(2H-tetrazol-5-yl)-5-(trifluoromethyl)-phenyl]piperazin-1-yl]methyl]-3H-quinazolin-4-one]: at human AT2R fused to Cb23 (setting [1]), the IC50 worked out at 42.4 µM.

Turning to `CCc1nc2ccc([N+](=O)[O-])cc2c(=O)n1CC1CCN(c2ccccc2-c2nn[nH]n2)CC1` [Compound A-242, 2-ethyl-6-nitro-3-[[1-[2-(2H-tetrazol-5-yl)phenyl]-4-piperidyl]methyl]quinazolin-4-one], at human AT2R fused to Cb23 (setting [1]), the IC50 came to 27.7 µM.

As to `c1ccc2sc(CN3CCN(c4cc(OCC5COC5)ccc4-c4nn[nH]n4)CC3)nc2c1` [Compound A-58, 2-[[4-[5-(oxetan-3-ylmethoxy)-2-(2H-tetrazol-5-yl)phen-yl]piperazin-1-yl]-methyl]-1,3-benzo-thiazole], the half-maximal inhibitory concentration (IC50) at human AT2R fused to Cb23 (setting [1]) came out at 17.2 µM.

In the case of `CC(C)=Cc1ccc(-c2nn[nH]n2)c(N2CCN(Cc3nc4ccccc4c(=O)[nH]3)CC2)c1` [Compound A-30, 2-[[4-[5-(2-methyl-prop-1-enyl)-2-(2H-tetrazol-5-yl)-phenyl]piperazin-1-yl]methyl]-3H-quinazolin-4-one], the IC50 on human AT2R fused to Cb23 (setting [1]) stood at 114 µM.

Regarding `O=c1c2ccccc2nc(-c2ccccc2)n1CC1CCN(c2ccccc2-c2nnn[nH]2)CC1` [Compound A-249, 2-phenyl-3-[[1-[2-(2H-tetrazol-5-yl)phenyl]-4-piperidyl]methyl]quinazolin-4-one], the IC50 on human AT2R fused to Cb23 (setting [1]) was found to be 79 µM.

Regarding `CCc1nc2ccccc2c(=O)n1CC1CCN(c2ccccc2-c2nn[nH]n2)CC1` [Compound A-240, 2-ethyl-3-[[1-[2-(2H-tetrazol-5-yl)-phenyl]-4-piperid-yl]methyl]quin-azolin-4-one], the IC50 at human AT2R fused to Cb23 (setting [1]) is 36.2 µM.

`CN1CCN(c2ccc(-c3nn[nH]n3)c(N3CCN(Cc4nc5ccccc5s4)CC3)c2)CC1` [Compound A-66, 2-[[4-[5-(4-methyl-piperazin-1-yl)-2-(2H-tetrazol-5-yl)-phenyl]piperazin-1-yl]methyl]-1,3-benzothiazole]: on human AT2R fused to Cb23 (setting [1]), the IC50 is 11.8 µM.

For the compound `CCc1cc(-c2nn[nH]n2)c(N2CCN(Cc3cccnn3)CC2)cc1OC(C)C` [Compound A-158, 3-[[4-[4-ethyl-5-isopropoxy-2-(2H-tetrazol-5-yl)phen-yl]piperazin-1-yl]-methyl]pyridazine], at human AT2R fused to Cb23 (setting [1]), the IC50 stood at 44 µM.

Turning to `COc1cc(F)c(-c2nn[nH]n2)c(N2CCN(Cc3nc4ccccc4c(=O)[nH]3)CC2)c1` [Compound A-150, 2-[[4-[3-fluoro-5-methoxy-2-(2H-tetrazol-5-yl)phen-yl]piperazin-1-yl]-methyl]-3H-quin-azolin-4-one], at human AT2R fused to Cb23 (setting [1]), the IC50 was 33.8 µM.

With `Cc1ccc(-c2nn[nH]n2)c(N2CCN(Cc3nc4ccccc4n3C)CC2)c1` [Compound A-16, 1-methyl-2-[[4-[5-methyl-2-(2H-tetrazol-5-yl)phen-yl]piperazin-1-yl]-methyl]benzimid-azole], the IC50 on human AT2R fused to Cb23 (setting [1]) amounted to 21.7 µM.

Take `Cc1nccc(CN2CCN(c3cc(CC(C)C)ccc3-c3nn[nH]n3)CC2)n1` [Compound A-99]: on human AT2R fused to Cb23 (setting [1]), the half-maximal inhibitory concentration (IC50) came to 33.9 µM.

With `CC(C)Cc1ccc(-c2nn[nH]n2)c(N2CCN(Cc3ccn(C)n3)CC2)c1` [Compound A-110, 1-[5-isobutyl-2-(2H-tetrazol-5-yl)phen-yl]-4-[(1-methyl-pyrazol-3-yl)meth-yl]piperazine], the IC50 at human AT2R fused to Cb23 (setting [1]) was 17.8 µM.

Consider `CC(C)Cc1ccc(-c2nn[nH]n2)c(CN2CCN(Cc3cccnn3)CC2)c1` [Compound A-238, 3-[[4-[[5-isobutyl-2-(2H-tetrazol-5-yl)phenyl]methyl]-piperazin-1-yl]-methyl]pyridazine], for which, on human AT2R fused to Cb23 (setting [1]), the IC50 was determined as 18.8 µM.

As to `CC(C)Cc1ccc(-c2nn[nH]n2)c(N2CCN(Cc3cccc(C#N)n3)CC2)c1` [Compound A-107, 6-[[4-[5-isobutyl-2-(2H-tetrazol-5-yl)-phenyl]piperazin-1-yl]methyl]pyr-idine-2-carbonitrile], the IC50 on human AT2R fused to Cb23 (setting [1]) was determined as 54.9 µM.

With `COc1cc(F)c(-c2nn[nH]n2)c(N2CCN(Cc3cccnn3)CC2)c1` [Compound A-155, 3-[[4-[3-fluoro-5-methoxy-2-(2H-tetrazol-5-yl)phen-yl]piperazin-1-yl]-methyl]pyridazine], the IC50 on human AT2R fused to Cb23 (setting [1]) was 72.8 µM.

With `COCCNc1ccc(-c2nn[nH]n2)c(N2CCN(Cc3nc4ccccc4s3)CC2)c1` [Compound A-63, 3-[4-(1,3-benzothi-azol-2-ylmethyl)-piperazin-1-yl]-N-(2-methoxyethyl)-4-(2H-tetrazol-5-yl)aniline], the IC50 on human AT2R fused to Cb23 (setting [1]) was 21.6 µM.

For the compound `CC(C)Cc1ccc(-c2nn[nH]n2)c(N2CCN(Cc3cc(=O)n4c(ccn4C)n3)CC2)c1` [Compound A-74, 5-[[4-[5-isobutyl-2-(2H-tetrazol-5-yl)-phenyl]piperazin-1-yl]methyl]-1-methyl-pyrazolo-[1,5-a]pyrimidin-7-one], the 50% inhibitory concentration (IC50) at human AT2R fused to Cb23 (setting [1]) worked out at 11.7 µM.

`O=C(O)c1ccccc1CN1CCN(c2nc3ccccc3s2)CC1` [Compound A-01, 2-[[4-(1,3-benzothiazol-2-yl)piperazin-1-yl]methyl]benzoic acid]: the IC50 at human AT2R fused to Cb23 (setting [1]) amounted to 33.6 µM.

Take `Cc1noc(CN2CCN(c3cc(CC(C)C)ccc3-c3nn[nH]n3)CC2)n1` [Compound A-96, 5-[[4-[5-isobutyl-2-(2H-tetrazol-5-yl)-phenyl]piperazin-1-yl]methyl]-3-methyl-1,2,4-oxa-diazole]: on human AT2R fused to Cb23 (setting [1]), the IC50 turned out to be 13.2 µM.

With `Cc1ncc(CN2CCN(c3cc(CC(C)C)ccc3-c3nn[nH]n3)CC2)n1C` [Compound A-114, 1-[(2,3-dimethyl-imidazol-4-yl)meth-yl]-4-[5-isobutyl-2-(2H-tetrazol-5-yl)-phenyl]piperazine], the IC50 on human AT2R fused to Cb23 (setting [1]) turned out to be 18.7 µM.

Take `CCc1cnc(-c2nn[nH]n2)c(N2CCN(Cc3nc4ccccc4s3)CC2)c1` [Compound A-141]: at human AT2R fused to Cb23 (setting [1]), the IC50 is 22.7 µM.

On to `Cc1cc(-c2nn[nH]n2)c(N2CCN(Cc3cccnn3)CC2)cc1CC(C)C` [Compound A-166, 3-[[4-[5-isobutyl-4-methyl-2-(2H-tetrazol-5-yl)phen-yl]piperazin-1-yl]-methyl]pyridazine], for which, on human AT2R fused to Cb23 (setting [1]), the IC50 is 22.1 µM.

As to `c1cnnc(CN2CCN(c3cc(C4CC4)ccc3-c3nn[nH]n3)CC2)c1` [Compound A-91, 3-[[4-[5-cyclopropyl-2-(2H-tetrazol-5-yl)phenyl]piperazin-1-yl]methyl]pyridazine], the IC50 on human AT2R fused to Cb23 (setting [1]) is 23.7 µM.

With `Cc1ccc(-c2nn[nH]n2)c(N2CCN(Cc3nc4ccccc4c(=O)[nH]3)CC2)c1` [Compound A-27, 2-[[4-[5-methyl-2-(2H-tetrazol-5-yl)-phenyl]piperazin-1-yl]methyl]-3H-quinazolin-4-one], at human AT2R fused to Cb23 (setting [1]), the IC50 worked out at 35.9 µM.

As to `c1ccc2sc(CN3CCN(c4cc(NCC5CC5)ccc4-c4nn[nH]n4)CC3)nc2c1` [Compound A-62, 3-[4-(1,3-benzothi-azol-2-ylmethyl)-piperazin-1-yl]-N-(cyclopropylmeth-yl)-4-(2H-tetrazol-5-yl)aniline], the inhibition at 1 µM on human AT1R (compound at 1 μM, read-out: % Displaced radioligand at 1 μM) is less than 30%. For the same compound, the inhibition at 10 µM at human AT1R (compound at 10 μM, read-out: % Displaced radioligand at 10 μM) was less than 30%.

Values taken from patent US20240368133A1, “Compounds for the Treatment of Pain, in Particular, Neuropathic Pain, and/or Other Diseases or Disorders that are Associated with AT2R and/or AT2R Mediated Signaling” (Confo Therapeutics N.V., priority 2021, published 2024).
